Assay results as given in patent publication EP4407316A1, “PROTEASOMAL DEGRADATION OF PROTEINS” (Katholieke Universiteit Leuven, KU Leuven R&D, priority 2023, dated 2024).
Values belong to the molecule of their own block, whether it stands above or below them.

What was measured:
[1] = test system: ASB8 knockout and overexpressing cells; test: MTS cell viability assay in ASB8 knockout and ASB8 overexpressing cells; format: cell-based, human; conditions: HAP1 four days, KMS-28BM six days of treatment
Description: (§1) Figure 4. XPO1 protein degradation is regulated by ASB8. a-b Sensitization profile of HAP1 cells with either knockout or overexpression of ASB8 under selection with selinexor. Cell viability when transduced with a safe-targeting or ASB8 targeting sgRNA (a). Cell viability when transduced with a non-coding stuffer sequence or ASB8 coding sequence at two different multiplicities of infection (MOI) (b). After four days of treatment with compound at the indicated concentrations, cell viability was measured by MTS assay. Data were normalized to untreated cells and represent mean ±SD of three separate experiments performed in triplicate. IC50 values were compared with control using an extra sum-of-squares F-test. c-d Monitoring of XPOL degradation in HAP1 cells with western blot. Comparison of cells stably transduced with a safe-targeting versus ASB8 targeting sgRNA (c) or with a stuffer sequence versus ASB8 coding sequence (d). Cells were treated overnight with selinexor and bortezomib as indicated. […]
(§2) Figure 10. a Viability of KMS-28BM cells stably transduced with a stuffer or ASB8 coding lentiviral vector and treated with different concentrations of selinexor. b-e Viability of ASB8 knockout and ASB8 overexpressing HAP1 cells treated with different concentrations of KPT-9274 (b, c) or ispinesib (d, e). f-g Viability of ASB8 overexpressing KMS-28BM cells treated with different concentrations of KPT-9274 (f) or ispinesib (g). After four days (HAP1) or six days (KMS-28BM) of treatment with compound at the indicated concentrations, cell viability was measured by MTS assay. […] IC50 values were compared with control using an extra sum-of-squares F-test. h Representative images of fluorescence microscopy imaging of subcellular ASB8 localization. […]
HAP1 cells were seeded in 96-well plates at 2500 cells/well in 100 µL medium. […] For each experiment, absorbance measurements of three replicate wells were averaged. […]

XPO1 = target: T1, XPO1 (Homo sapiens, UniProt O14980); test: Western blot (Simple Western) monitoring XPO1 degradation in HAP1 cells; format: cell-based; conditions: for XPO1 degradation: overnight treatment
T1 construct: endogenous in cells
Description: Figure 4. XPO1 protein degradation is regulated by ASB8. a-b Sensitization profile of HAP1 cells with either knockout or overexpression of ASB8 under selection with selinexor. Cell viability when transduced with a safe-targeting or ASB8 targeting sgRNA (a). Cell viability when transduced with a non-coding stuffer sequence or ASB8 coding sequence at two different multiplicities of infection (MOI) (b). After four days of treatment with compound at the indicated concentrations, cell viability was measured by MTS assay. Data were normalized to untreated cells and represent mean ±SD of three separate experiments performed in triplicate. IC50 values were compared with control using an extra sum-of-squares F-test. c-d Monitoring of XPOL degradation in HAP1 cells with western blot. Comparison of cells stably transduced with a safe-targeting versus ASB8 targeting sgRNA (c) or with a stuffer sequence versus ASB8 coding sequence (d). Cells were treated overnight with selinexor and bortezomib as indicated. Cells were harvested and total lysates were probed for XPO1 and TUBB (β-tubulin) protein levels. e Time-of-drug-addition assay in HAP1 cells harboring a stuffer or ASB8 coding sequence (MOI=0.2). Duration of treatment with selinexor is as indicated. For bortezomib, length of treatment was 24 h for all conditions. f Selinexor-induced degradation of XPO1 in HAP1 cells with an endogenous Cys528Ser mutation introduced by CRISPR-mediated homology-directed repair. Following stable transduction of XPOL wild-type and mutant cells with a stuffer or ASB8 coding sequence (MOI=0.2), cells were treated overnight with compound as indicated.
For the experiments monitoring XPO1 degradation, HAP1 cells were seeded in 6-well plates at 100,000 cells/mL. The next day, cells were treated with selinexor and/or bortezomib as indicated. The pan-caspase inhibitor Q-VD-OPh was added to all conditions at 10 µM final concentration to delay onset of apoptosis. Cells were treated with compound overnight or as indicated. Next, cells were harvested, washed with ice-cold PBS and lysed in RIPA buffer (Thermo Fisher Scientific) with 1× HALT Protease Inhibitor Cocktail (Thermo Fisher Scientific) on ice for 20 min. Cell debris was removed by centrifugation at 20.000 × g and 4 °C for 10 min and total protein content was quantified with the Pierce BCA Protein Assay kit (Thermo Fisher Scientific). We used an automated, capillary-based Simple Western size assay (Wes, ProteinSimple) to detect and quantify our proteins of interest. 5 µL of lysate at a final concentration of 200 µg/mL was loaded onto the assay plate. For detection, the following primary antibodies and dilutions were used: CRM1/XPO1 (NB100-79802, Novus, 1:1000), TUBB (NB600-936, Novus, 1:40) and FLAG (F4049, Sigma-Aldrich, 1:250). […]

HAP1 cells = test: Live cell count to establish selinexor IC values for CRISPR screening; format: cell-based; conditions: Homo sapiens, 96 h, live cells counted after four days and compared to untreated control flask
Description: To detect gene loss-of-function events that modulate sensitivity to XPO1 inhibition, we conducted genome-wide CRISPR-Cas9 screens in cells under selection with selinexor. We selected HAP1 cells for our initial screen as this chronic myeloid leukemia cell line is a relevant model^66,67 and has suitable characteristics for CRISPR screening, including a high proliferation rate and transduction efficiency. HAP1 cells were transduced with the Brunello genome-wide CRISPR knockout library in the one-vector configuration, in which sgRNA and Cas9 are expressed from a single lentiviral construct. Cells were split into control (DMSO) and selinexor-treated arms, further divided into three replicates per arm and passaged in parallel for 24 days (Fig. 1a). Selinexor was used at a concentration of 100 nM, corresponding to the IC50, i.e., the concentration at which the live cell count in the treated arm was half of that in the control arm after […]. At each passage, cells were harvested and per arm, an equal number of cells was reseeded with fresh compound. […]
To establish IC values for screening, cells were seeded in 150-cm^2 flasks and treated with selinexor at different concentrations for four days after which live cells were counted and compared to an untreated control flask. […]

ASB8 interacts with XPO1 = target: T2, ASB8 interacts with XPO1 (Homo sapiens, UniProt O14980); test: Co-immunoprecipitation of XPO1 with FLAG-ASB8 in HEK293T cells; format: binding; conditions: HEK293T cells co-transfected with XPO1 and FLAG-ASB8; 15 minutes treatment; higher concentrations
T2 construct: expressed in transfected cells; host or cells: HEK293T cells, transient transfection (TurboFectin 8.0)
Experimental: Figure 5. ASB8 interacts with XPO1. HEK293T cells were transiently transfected with XPO1 alone or together with either FLAG-ASB8 or FLAG-luc2 plasmids. After 24 hours, selinexor was added at the indicated concentrations and cells were incubated for 15 minutes. Next, cells were collected and incubated with lysis buffer for 20 minutes (whole-cell lysate, WCL). From these lysates, FLAG fusions were pulled down and co-immunoprecipitation of XPO1 was checked with western blot (IP: FLAG).
as §2
The protocol for lysis and co-immunoprecipitation was modified from an earlier report^64. […] After 15 min of incubation, cells were harvested and counted. […]

ASB8 = test: Immunofluorescence staining of subcellular ASB8 localization in HAP1 cells; format: cell-based, human; conditions: stable FLAG-ASB8 expressing HAP1 cells; 200 nM overnight
Description: Figure 10. a Viability of KMS-28BM cells stably transduced with a stuffer or ASB8 coding lentiviral vector and treated with different concentrations of selinexor. b-e Viability of ASB8 knockout and ASB8 overexpressing HAP1 cells treated with different concentrations of KPT-9274 (b, c) or ispinesib (d, e). f-g Viability of ASB8 overexpressing KMS-28BM cells treated with different concentrations of KPT-9274 (f) or ispinesib (g). After four days (HAP1) or six days (KMS-28BM) of treatment with compound at the indicated concentrations, cell viability was measured by MTS assay. Data were normalized to untreated cells and represent mean ±SD of two or three separate experiments performed in triplicate. IC50 values were compared with control using an extra sum-of-squares F-test. h Representative images of fluorescence microscopy imaging of subcellular ASB8 localization. HAP1 cells with a stably integrated FLAG-ASB8 or a non-coding stuffer sequence were treated overnight with DMSO or 200 nM selinexor. Cells were fixed and stained with a primary anti-FLAG antibody. Nuclei were stained with DAPI. Figure 11. Co-immunoprecipitation of XPO1 with ASB8. HEK293T cells were transiently transfected with XPOL together with either FLAG-ASB8 or KPNA3-FLAG (control) plasmids. After 24 hours, selinexor was added at the indicated concentrations and cells were incubated for an additional 15 minutes. […]

XPO1 Cys528Ser mutation = target: T3, XPO1 Cys528Ser mutation (Homo sapiens, UniProt O14980, C528S); test: Western blot (Simple Western) monitoring XPO1 degradation in HAP1 XPO1 C528S mutant cells; format: cell-based; conditions: HAP1 cells with endogenous XPO1 Cys528Ser mutation; control and ASB8 overexpressing; overnight treatment
T3 construct: HAP1 cells with an endogenous Cys528Ser mutation introduced by CRISPR-mediated homology-directed repair; endogenous in cells
Description: as §1, with “(d).” for “(d). Cells were treated overnight with selinexor and bortezomib as indicated.”
For the experiments monitoring XPO1 degradation, HAP1 cells were seeded in 6-well plates at 100,000 cells/mL. […] Cell debris was removed by centrifugation at 20.000 × g and 4 °C for 10 min and total protein content was quantified with the Pierce BCA Protein Assay kit (Thermo Fisher Scientific). We used an automated, capillary-based Simple Western size assay (Wes, ProteinSimple) to detect and quantify our proteins of interest. […]

DS cells = test: Live cell count to establish selinexor IC values for CRISPR screening; format: cell-based; conditions: Homo sapiens, 96 h, live cells counted after four days and compared to untreated control flask
Experimental: (§3) To establish IC values for screening, cells were seeded in 150-cm^2 flasks and treated with selinexor at different concentrations for four days after which live cells were counted and compared to an untreated control flask. HAP1, KMS-28BM and SK-MM-1 cells were screened with the one-vector library encoding both sgRNA and Cas9 while for DS and RL cells, the two-vector library, which uses two separate vectors for the sgRNA and Cas9, was used. Cells were transduced at a MOI of approximately 0.25 and a coverage of >200-fold. Puromycin-selected cells were allowed to recover for 4-7 days after which selection with selinexor started. […] In addition, KMS-28BM were also screened at IC20, corresponding to a concentration of 40 nM. Finally, for every cell line, a no-drug condition was included (DMSO). For each condition, three parallel replicates containing at least 20 × 10^6 cells each were initiated after puromycin selection and maintained independently throughout screening and downstream processing. Cells were passaged every 2-4 days and cell pellets of 20 × 10^6 were collected at regular intervals. Screening continued for >20 cell doublings, more precisely until day 24, 42, 28, 28 and 25 for HAP1, KMS-28BM, SK-MM-1, DS and RL cells, respectively.

RL cells = test: as above; format: cell-based; conditions: Homo sapiens, 96 h, live cells counted after four days and compared to untreated control flask
Experimental: as §3

KMS-28BM cells = test: as above; format: cell-based; conditions: Homo sapiens, 96 h, live cells counted after four days and compared to untreated control flask
Experimental: as §3

SK-MM-1 cells = test: as above; format: cell-based; conditions: Homo sapiens, 96 h, live cells counted after four days and compared to untreated control flask
Experimental: as §3

T1 sequence (O14980 whole entry): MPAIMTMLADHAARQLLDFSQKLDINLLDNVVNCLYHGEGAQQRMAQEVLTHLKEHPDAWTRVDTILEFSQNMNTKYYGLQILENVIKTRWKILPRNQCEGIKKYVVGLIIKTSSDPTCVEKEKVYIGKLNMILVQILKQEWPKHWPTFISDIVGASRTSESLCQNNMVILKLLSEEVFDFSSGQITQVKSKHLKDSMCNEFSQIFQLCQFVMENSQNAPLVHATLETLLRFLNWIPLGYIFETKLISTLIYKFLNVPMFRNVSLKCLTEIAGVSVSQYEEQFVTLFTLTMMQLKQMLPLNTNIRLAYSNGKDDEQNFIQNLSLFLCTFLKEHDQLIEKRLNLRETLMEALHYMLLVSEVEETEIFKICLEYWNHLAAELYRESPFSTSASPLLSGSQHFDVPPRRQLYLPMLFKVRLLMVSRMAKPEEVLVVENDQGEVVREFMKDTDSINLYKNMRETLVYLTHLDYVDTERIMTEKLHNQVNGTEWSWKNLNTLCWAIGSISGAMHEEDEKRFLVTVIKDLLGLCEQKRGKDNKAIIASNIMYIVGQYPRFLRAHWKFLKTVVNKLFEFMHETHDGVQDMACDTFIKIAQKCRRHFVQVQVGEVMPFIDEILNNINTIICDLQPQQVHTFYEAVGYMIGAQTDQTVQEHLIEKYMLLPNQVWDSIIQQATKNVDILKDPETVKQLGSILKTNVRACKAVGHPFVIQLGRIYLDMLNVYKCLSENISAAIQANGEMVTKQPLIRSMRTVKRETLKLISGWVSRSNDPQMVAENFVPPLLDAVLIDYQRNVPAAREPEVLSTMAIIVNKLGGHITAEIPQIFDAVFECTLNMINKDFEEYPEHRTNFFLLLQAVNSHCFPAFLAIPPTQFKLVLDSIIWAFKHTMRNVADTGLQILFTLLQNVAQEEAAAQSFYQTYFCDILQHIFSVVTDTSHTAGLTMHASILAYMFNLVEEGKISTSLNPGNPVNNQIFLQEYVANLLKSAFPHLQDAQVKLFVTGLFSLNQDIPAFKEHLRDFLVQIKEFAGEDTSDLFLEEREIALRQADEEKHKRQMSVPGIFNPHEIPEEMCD
T3 sequence (O14980 whole entry C528S): as the sequence (O14980 whole entry) above, with C528S counted along it
T2 sequence (O14980 whole entry): as the sequence (O14980 whole entry) above
T2 sequence (Q9H765 whole entry partner): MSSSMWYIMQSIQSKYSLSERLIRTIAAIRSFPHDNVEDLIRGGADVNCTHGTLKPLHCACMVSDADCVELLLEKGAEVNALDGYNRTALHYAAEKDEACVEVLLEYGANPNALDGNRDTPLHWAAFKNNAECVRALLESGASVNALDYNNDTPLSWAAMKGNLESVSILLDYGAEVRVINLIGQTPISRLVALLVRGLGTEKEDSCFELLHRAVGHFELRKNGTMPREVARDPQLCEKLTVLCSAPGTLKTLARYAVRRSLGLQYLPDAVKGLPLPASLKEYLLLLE

Compound: Nc1ccc(/C=C/C(=O)NCc2cc3cc(-c4ccc(C(=O)N5CCC(F)(F)CC5)cc4)cc(-c4ccc(F)cc4)c3o2)cn1 [KPT-9274]
sensitivity (dose-response) in ASB8 knockout and overexpressing cells versus control [1]: no difference in response

effect on selinexor-induced XPO1 degradation (XPO1; HAP1 control cells with safe-targeting sgRNA, co-treatment with selinexor overnight): prevented
Compound: CC(C)C[C@H](NC(=O)[C@H](Cc1ccccc1)NC(=O)c1cnccn1)B(O)O [bortezomib]

Compound: Cc1ccc(C(=O)N(CCCN)[C@@H](c2nc3cc(Cl)ccc3c(=O)n2Cc2ccccc2)C(C)C)cc1 [ispinesib]
sensitivity (dose-response) in ASB8 knockout and overexpressing cells versus control [1]: no difference in response

IC50 (HAP1 cells): 0.1 µM
XPO1 degradation (XPO1 Cys528Ser mutation): did not trigger XPO1 degradation
XPO1 degradation (XPO1; HAP1 control cells with safe-targeting sgRNA): dose-dependent degradation of XPO1
IC50 (DS cells): 0.2 µM
IC50 (RL cells): 0.04 µM
IC50 (KMS-28BM cells): 0.125 µM
IC50 (SK-MM-1 cells): 0.14 µM
Compound: O=C(/C=C\n1cnc(-c2cc(C(F)(F)F)cc(C(F)(F)F)c2)n1)NNc1cnccn1 [selinexor]
amount of XPO1 co-immunoprecipitated with FLAG-ASB8 (ASB8 interacts with XPO1): increased the amount of immunoprecipitated XPO1
sensitivity (dose-response) in ASB8 knockout and overexpressing cells versus control [1]: increased sensitivity
nuclear accumulation of ASB8 (ASB8): did not observe nuclear accumulation of ASB8
XPO1 degradation (XPO1; HAP1 ASB8 knockout cells): did not observe selinexor-induced XPOL degradation to the same extent
XPO1 degradation (XPO1; HAP1 ASB8 overexpressing cells, with and without bortezomib): XPO1 was profoundly depleted even in the presence of bortezomib
IC20 (KMS-28BM cells): 0.04 µM
